Experimental findings from patent US9359196B2, “Antiproliferative compositions comprising curcumin analogs and methods of producing and using same” (The Board of Regents of the University of Oklahoma, priority 2009, dated 2016) are described below.

Read-outs that look alike come from different tables or passages of the source. Bounds are passed on as bounds.

The test system of series [1] is H441 cells. Nature of the series: Transmission electron microscopy of treated H441 cells (autophagy). In kind it is cell-based, human. The conditions noted are these: 24 hour treatment, 1 and 10 μM. The method, then: Transmission Electron Microscopy (TEM): TEM was performed after 24 hour treatment with 1 and 10 μM of compound 1 or compound 29 (CLEFMA). The cells were fixed in 0.1M sodium cacodylate buffer containing 4% paraformaldehyde (PFA) and 2% glutaraldehyde for 4 h at room temperature. The samples were post-fixed in 1% osmium tetroxide for 1.5 h and washed with 0.1M sodium cacodylate buffer, followed by dehydration in an ethanol series of 50%, 60%, 75%, 85%, and 95% for 15 minutes each. The cells were washed twice in 100% Ethanol and passed through a series of epon-araldite (6.2 g epon+4.4 g araldite+12.4 g of dodecenyl succinic anhydride+0.8 g N,N-dimethylbenzylamine) solution in ethanol, [Matsko et al., 2005] before embedding the cells in epon-araldite resin. Finally, 100 nm sections were cut using a microtome, and the sections were placed on glow-discharged 300 mesh Copper grids. The ultrasections were stained with Sato's lead (mixture of calcinated lead citrate, lead nitrate, lead acetate and sodium citrate), and observed by a Hitachi H-7600 Transmission Electron Microscope at 2500× (Oklahoma Medical Research Foundation Imaging and core facility, Oklahoma City).

Series [2] relates to H441 cells. Nature of the series: Monodansylcadaverine fluorescence microscopy of autophagosomes in H441 cells. In kind it is cell-based, human. The method, then: Monodansylcadaverine (MDC) is an autofluorescent marker for autophagic vacuoles. [Biederbick et al., 1995] It was found the emergence of intense MDC-fluorescence in the treated cells. The fluorescence vanished when the cells were treated with 3-methyl adenine (3-MA). […] [Seglen et al., 1982]

Series [3] relates to lung adenocarcinoma cell line H441. Put plainly: Cell proliferation (hexosaminidase assay) in lung adenocarcinoma H441 cells, Example 1. Format: cell-based, human. The conditions noted are these: Homo sapiens, NCI-H441, 24 h of treatment. The method, then:
Cell Proliferation Studies: In order to assess the anti-proliferative activity of the synthesized compounds, an in vitro cell culture system of lung adenocarcinoma cell line H441 was used. The cell detachment and anti-proliferative activity was measured as a decrease in hexosaminidase enzyme activity associated with remainder of the adhered cells. [Landegren, 1984] […] The concentration versus cell proliferation plots were analyzed by an exponential fit (Table 1). The results were compared with the anti-proliferative activity of compound 1.
Cell Culture and drug treatment: Human lung adenocarcinoma cell line NCI-H441 (ATCC Number: HTB-174) was obtained from the American Type Culture Collection (Manassas, Va.). H441 cells were maintained at 37° C. with 5% CO2 in McCoy's 5A Medium (Invitrogen, Carlsbad, Calif.) supplemented with 5% heat-inactivated fetal bovine serum (FBS). All media contained gentamicin at 50 μg/ml (GIBCO Laboratories, Grand Island, N.Y.). Other cells lines (PANC-1, MiaPaCa-2 and PC-3) were also similarly maintained, except that the cell culture medium was RPMI 1640 instead of McCoy's.
To evaluate the anti-proliferative activity of synthesized bis(2-fluorobenzylidene)-4-piperidone and its derivatives, the cells were seeded in 96-well flat-bottom tissue culture plates at a density of 10×10^3 cells per well. The cells were allowed to attach and grow overnight. The test compounds were solubilized in dimethyl sulfoxide (DMSO), filtered through 0.2 μm nylon filter and added to cells at 1, 10, 25 and 100 μM concentrations in culture medium supplemented with 5% FBS. The DMSO concentration was maintained at 0.1% per well. Control wells received equivalent volume of DMSO without any test compounds. The cells were allowed to remain in the treatment medium for 24, 48 and 72 hours.
Cell Proliferation: The total number of cells after the treatment period was estimated by the hexosaminidase assay. [Landegren, 1984] Briefly, the medium was removed and hexosaminidase substrate solution in citrate buffer pH 5 (7.5 mM), […] (Calbiochem, San Diego, Calif.) was added at 60 μl per well. The plate was incubated at 37° C. in 100% humidity for 30 minutes, before stopping the reaction with 90 μl of 50 mM glycine containing 5 mM of EDTA (pH 10.4). The absorbance was measured at 405 nm. The experiments were conducted in triplicate, and repeated at least twice. The data were analyzed as percent of control, where the control wells were treated with equivalent amounts of DMSO alone, and the analyzed data was presented as average±standard error of mean. The differences among mean values were deemed significant at p<0.05.
For IC50 calculations, a plot between the drug concentration and hexosaminidase activity was generated and the data was fitted either linearly or exponentially. The best fit was used for further processing of data.

Another series is described as follows: Solubility in solvents. Format: physicochemical. From the text:
The goal was to synthesize compounds that can be inserted into lipid carriers, such as liposomes. […] The retention of activity by compounds with 12-14 carbon unsaturated a chain modification is encouraging, for it enables the incorporation of these compounds in a lipid carrier system. […] This appears to be the first report where piperidinyl nitrogen of chalcones has been modified with lipid chains.

Series [4] has as its system Human lung adenocarcinoma cell line NCI-H441. Nature of the series: In vitro anti-proliferative activity in H441 cells (hexosaminidase), Example 2. Format: cell-based. The protocol: Human lung adenocarcinoma cell line NCI-H441 (ATCC # HTB-174) and normal lung fibroblasts LL-24 (ATCC #CCL-151) were obtained from American Type Culture Collection (Manassas, Va.). The cells were maintained at 37° C. with 5% CO2 in RPMI 1640 medium (Invitrogen, Carlsbad, Calif.). The medium was supplemented with 10% heat-inactivated fetal bovine serum and 50 μg/ml of gentamicin (GIBCO Laboratories, Grand Island, N.Y.). For cell proliferation assay, the cells were seeded in 96-well flat-bottom tissue culture plates at a density of 0.5−1×10^4 cells per well. The cells were allowed to adhere and grow overnight, followed by treatment with CLEFMA or CLEFMA-liposomes. The concentration of CLEFMA was maintained in the range of 0.1-25 μM in 100 μl of RPMI 1640 medium. For comparison, the cells were also treated with 1 and 10 μM natural curcumin and EF24. EF24 is a potent synthetic curcuminoid and a close analog of CLEFMA [Adams et al., 2004]. All solutions of plain drugs were made in dimethylsulfoxide (DMSO). The concentration of DMSO in the treatment medium was maintained at 0.1%. The control wells received equivalent amounts of DMSO or phospholipid-matched control liposomes. Inhibition of cell proliferation was determined by measuring a decrease in hexosaminidase activity as described by Landegren [Landegren, 1984]. Para-nitrophenol-N-acetyl-beta-D-glucosaminide (60 μl per well) was used as the substrate for the hexosaminidase enzyme. The results of hexosaminidase assay were also confirmed by visualization of cultured cells under a microscope.

Setting [5] is: 1-100 μM tested, fitted plot, read-out: IC50 value.
Where [6] appears, read: read-out: IC50 (grouping relative to compound 1).

Turning to `O=C1C(=Cc2ccccc2F)CNCC1=Cc1ccccc1F` [Compound 1, 3,5-Bis(2-fluorobenzylidene)-4-piperidone, reference compound], the “change in cellular architecture (TEM)” value in the series on H441 cells [1] is given as “induced a substantial change in cellular architecture”. For the same molecule, the “autophagosome formation (MDC fluorescence)” value with H441 cells [2] is reported as “appearance of intracellular vacuoles or autophagosomes”. For the same molecule, in series [3] (setting [5]), the IC50 – broadly, the point on the concentration scale where inhibition reaches its midpoint – worked out at 44 µM.
For `O=C1C(=Cc2ccccc2F)CN(C(=O)C2CCCCC2C(=O)O)CC1=Cc1ccccc1F` (stereo not drawn) [Compound 17, 2-[3,5-Bis-(2-fluorobenzylidene)-4-oxo-piperidine-1-carbonyl]-cyclohexanecarboxylic acid], the melting point (usually the temperature of the solid-liquid transition) was 96 to 98 °C. Also, the IC50 in series [3] (setting [5]) was 55 µM. Besides, the half-maximal inhibitory concentration (IC50) in series [3] (setting [6]) is more than 50 µM.
Consider `Cc1ccc(S(=O)(=O)N2CC(=Cc3ccccc3F)C(=O)C(=Cc3ccccc3F)C2)cc1` [Compound 20, N-(4-Methylbenzenesulfonyl)-3,5-bis(2-fluorobenzylidene)-4-piperidone], for which the melting point is 162 to 163 °C. In addition, the half-maximal inhibitory concentration (IC50) in series [3] (setting [5]) amounted to 50 µM. In addition, the IC50 in series [3] (setting [6]) is more than 50 µM.
In turn, `CCCCCCCCCCCCCCCCCC(=O)N1CC(=Cc2ccccc2F)C(=O)C(=Cc2ccccc2F)C1` [Compound 25, 3,5-Bis-(2-fluorobenzylidene)-1-octadecanoyl-4-piperidone] had a melting point of 70 to 71 °C. Also, the solubility in solvents result in the series “Solubility in solvents” is “insoluble in all common solvents except chloroform”.
For `N[C@@H](CCC(=O)N[C@@H](CS)C(=O)NCC(=O)O)C(=O)O` [Glutathione, glutathione], the “anti-proliferative activity in H441 cells” value in series [4] is on record as “not anti-proliferative by itself”.
